Measurements published in patent publication US20230372335A1, “TREATMENT OF COGNITIVE IMPAIRMENT WITH A CNS-PENETRANT sGC STIMULATOR” (Cyclerion Therapeutics, Inc., priority 2020, published 2023).
“Also recorded” adds a separate entry of the source.

What was measured:
[1] = system: healthy elderly participants; assay: Safety and tolerability (adverse events, blood pressure), NCT04240158; format: in vivo, human
Protocol: Evaluations of systolic and diastolic blood pressure, pulse rate, respiratory rate, and temperature were performed throughout the study. Pulse and blood pressure were taken after the participant had rested quietly for 5 minutes in supine position. Automated oscillometric blood pressures and pulse rate were measured using a Dash 3000, Dash 4000, Dynamap 400, or Dynamap ProCare 400.
(§1) One dosage regimen was studied in this clinical trial. For subjects receiving IW-6463 during the given dosing period, IW-6463 tablets were administered orally at a 15-mg total once-daily dose for. For subjects receiving placebo during the given dosing period, placebo tablets to match IW-6463 tablets were used. For Cohort 1, the 15 mg total oral daily dose was selected based on emerging data from the Phase 1 study NCT03856827, pre-clinical qEEG results, as well as multispecies PK parameters. For Cohort 2, in addition to the those data. the emerging data from Cohort 1 of this study supported selection of the 15 mg total oral daily dose.
The safety population is defined as all participants who were randomized and received at least 1 dose of study drug.

[2] = system: healthy elderly participants; assay: Saccadic eye movements (SEM), NeuroCart, NCT04240158; format: in vivo, human; details: 15 mg oral once daily
Protocol: In this trial, SEMs were recorded at different times. Recording and analysis of SEMs were conducted with a microcomputer-based system for sampling and analysis of eye movements. The program for signal collection and the AD-converter was from Cambridge Electronic Design (CED Ltd., Cambridge, UK), the amplification by Grass (Grass-Telefactor, An Astro-Med, Inc. Product Group, Braintree, MA, USA) and the sampling and analysis scripts were developed at the CHDR (Leiden, the Netherlands). Disposable silver-silver chloride electrodes (Ambu Blue Sensor N) were applied on the forehead and beside the lateral canthi of both eyes of the participant for registration of the electro-oculographic signals. Skin resistance was reduced to less than 5 kOhm before measurements. […] SEMs were recorded for stimulus amplitudes of approximately 15 degrees to either side. Fifteen saccades were recorded with interstimulus intervals varying randomly between 3 and 6 seconds. […] Saccadic inaccuracy was calculated as the absolute value of the difference between the stimulus angle and the corresponding saccade, expressed as a percentage of the stimulus angle. SEMs were recorded in a training session at screening and during each Neurocart session (on day 1 and 15 of each treatment period at 2 hours pre-dose; on day 15 of each treatment period at 2, 3, and 6 hours post-dose). […]

[3] = Plasma and CSF concentrations in NCT03856827 trial; format: in vivo, human; details: total oral daily dose of 10 mg
[4] = system: CSF neuroinflammatory markers; assay: Exploratory CSF biomarker analysis, NCT04240158; format: in vivo, human; details: after two weeks of treatment
Source text: Biomarkers measured in the CSF included: neurofilament light chain (NF-L) and cGMP. Other biomarkers measured in CSF include A2M, C3, TIMP1, PAI1 MCP1, PARC (CCL18), MMP3 and TNFR2.

[5] = system: healthy elderly participants; assay: Resting-state EEG power spectra, healthy elderly study NCT04240158; format: in vivo, human
Protocol: Resting-state EEG recordings with open and closed eyes for 5 min in each eye state were performed. Each recording employed alternating periods with eyes open and closed with a duration of 64-seconds for each period. Participants faced a featureless wall and were instructed not to stare, not to move their head and eyes, and to suppress eye blinks.
An EEG cap with electrodes at the Fz, Cz, Pz, and Oz positions (referring to frontal, central, parietal, and occipital regions at the midline, respectively) was used to record signals. Analyses of EEG-power spectra signals were carried out at the following frequency bands: • Delta-1-4 Hz (typically associated with sleep), Theta-4-7.5 Hz (associated with waking/falling asleep, some association with cognition), Alpha-8-12 Hz (associated with passive wakefulness, and with cognitive processing), Beta-12-25 Hz (associated with alertness and concentration) and Gamma-25-45 Hz (associated with higher cognitive function).
(§2) This single-center double-blind, randomized, placebo-controlled, two-way, cross-over study evaluated a single dose level of IW-6463 compared to placebo. Subjects (male and female) were enrolled into 2 pre-defined, staggered cohorts (Cohort 1 and Cohort 2). The dose selected for both cohorts was the same but the start of enrollment within each cohort was different. This was based upon the availability of preliminary data from the previously started Phase 1 study NCT03856827 in healthy subjects and the emerging safety profile for that study from which a potential different second dose was being considered, but finally was not selected.
as §1

rats = details: cited from earlier work
[6] = system: healthy elderly participants; assay: N200 (MMN) auditory event-related potential by EEG, NCT04240158; format: in vivo, human; details: for ERP N200 amplitude: vs placebo or pre-treatment (FIG. 3); for N200 latency response vs age: subjects older than 70 vs 65-69 years old (FIG. 4, FIG. 8)
Protocol: In P300 and N200 ERP studies, participants were seated wearing the EEG cap and headphones and were instructed to sit still and relax. During the task, participants were presented with auditory tones. Participants were instructed to pay attention to the tones and press a response-button when they heard an infrequent/deviant tone. A total of 500 tones were presented over […], of which 400 were presented as frequent stimuli and 100 as deviant/infrequent stimuli. […] The first 5 trials were frequent tones and there were at least 2 frequent tones between 2 deviant/infrequent tones. The frequent and infrequent tones were 150 ms tones of 500 Hz and 1000 Hz at a sound pressure level of 75 dB, respectively. All tones has a 5 ms rise and fall time. Tones were presented at a fixed rate of 1 Hz.
as §2, §1

rodents = details: pre-clinical models; cited from earlier work
[7] = system: healthy subjects aged 18 to 62; assay: EEG in Phase I clinical trial NCT03856827; format: in vivo, human
Source text: Nonclinical pharmacology and toxicology data supported conducting clinical studies of Compound Ito assess its safety, tolerability, pharmacokinetic (PK), and pharmacodynamics (PD) in humans. In a Phase I clinical trial (NCT03856827) changes were also observed in the brains of healthy subjects aged 18 to 62 by EEG.

[8] = CSF concentration of study drug (pharmacokinetics), NCT04240158; format: in vivo, human
Protocol: as §1
The PK analysis population is defined as all participants who were randomized, received at least 1 dose of study drug, and have at least 1 measurable drug concentration of Compound 1 in collected samples.

pre-clinical models = details: cited from earlier work
[9] = safety population, 15 mg oral once daily up to 15 days
[10] = healthy elderly, 15 mg oral once daily
[11] = healthy elderly, 15 mg oral once daily, Day 15

For `Fc1ccccc1Cc1nc(-c2nc(C(F)(F)F)n[nH]2)cn2ccnc12` [Compound I], the “headache (most commonly reported CNS event) rate” value ([1]; IW-6463 vs placebo) was “rates were similar between treatments”, the “AE reports of syncope, hypotension or other hemodynamic events” value [1, 9] was “no AE reports of syncope, hypotension or other events potentially related to changes in hemodynamics” and the “blood pressure measurements below the normal range” value [1, 9] was “no blood pressure measurements reported below the normal range”. For the same compound, the “LS mean difference in change from baseline for saccadic peak velocity vs placebo (95% CI)” value ([2]; day 15) was 28.53 (−2.76, 59.83), the “LS mean difference in change from baseline for saccadic latency (reaction time) vs placebo” value ([2]; day 15, p=0.0216) was -6.58 ms and the “mean plasma and CSF concentrations vs threshold for pharmacological activity in the brain” value [3] was “exceed the threshold”. For the same compound, the “CSF concentration of Alpha 2 macroglobulin (A2M) vs placebo” value ([4]; nominal p 0.013 (FIG. 9)) was “potentially important reductions in the concentrations”, the “CSF concentration of complement C3 (C3) vs placebo” value ([4]; nominal p 0.039 (FIG. 9)) was “potentially important reductions in the concentrations” and the “mean alpha band power relative to placebo” value ([5]; Day 15 prior to last dose and 2, 3, 6 hours after last dose (FIG. 1)) was “increased mean alpha band power relative to placebo at all post-baseline timepoints”. The “EEG (anterior) gamma power, change from baseline” value [5, 10] was 1 dB, the “EEG (anterior) gamma power, increase from baseline” value [5, 10] was 45% and the “EEG (anterior) alpha power, change from baseline” value [5, 11] was 0.6 dB. The “EEG (anterior) alpha power, increase from baseline” value [5, 11] was 17.5%, the “EEG (anterior) alpha power, treatment effect vs placebo” value [5, 11] was 13% and the “EEG (posterior) alpha power, change relative to baseline” value [5, 11] was 0.5 dB. For the same compound, the “EEG (posterior) alpha power, increase from baseline” value [5, 11] was 13.7%, the “EEG (posterior) alpha power, treatment effect vs placebo” value [5, 11] was 17% and the “qEEG gamma power in combination with donepezil” value (rats; 10 mg/kg oral plus 1 mg/kg donepezil, 1-2 hours post-dose) was “further increased”. For the same compound, the “qEEG gamma oscillations / gamma power compared to vehicle dosing” value (rats; oral suspension) was “increased gamma oscillations”, the qEEG gamma power (rats; orally at 10 mg/kg) was “increased gamma power” and the “magnitude of improvement as age related change in N200 latency” value ([6]; at older ages, after two weeks of treatment) was 10 year. The “ERP N200 latency” value ([6]; healthy elderly, 15 mg oral once daily, day 14, compared with placebo, p=0.02) was “significantly shorter”, the “ERP N200 amplitude” value [6, 10] was “larger N200 negative amplitudes were observed with increasing age” and the “ERP N200 amplitude” value ([6]; healthy elderly, 15 mg oral once daily, listed as IW-6463) was “increased the amplitude”. For the same compound, the “N200 latency response vs age” value [6] was “smaller latency increases with increasing age; also recorded: greater in subjects older than 70 years old”, the “N200 latency response vs age” value ([6]; listed as IW-6463) was “greater in subjects older than 70 years old” and the “activation of brain regions by fMRI-BOLD” value (rodents) was “activation of subcortical brain structures relevant to cognition”. The “cerebral blood flow (CBF)” value (rodents) was “increased cerebral blood flow”, the “alpha power compared to placebo” value ([7]; NCT03856827, day 14, across all dosage levels tested) was “Improvements in alpha power” and the “ERP P300 amplitude” value ([7]; healthy subjects aged 18 to 62, NCT03856827) was “increase in amplitude with increasing dose level”. For the same compound, the concentration at 5 h ([8]; human, CSF, 15 mg oral once daily, 5-hrs post last dose) was 77 nM, the “CSF concentration relative to threshold expected for pharmacological activity in the brain” value ([8]; threshold determined from preclinical models) was 2-3 times and the “effects on memory and learning” value (pre-clinical models) was “displaying effects on memory and learning”. The effects on neuroinflammation (pre-clinical models) was “positive effects on neuroinflammation” and the neuroprotective properties (pre-clinical models) was “displayed neuroprotective properties”.
